Data published in publication PMC4527713, “An IPTG Inducible Conditional Expression System for Mycobacteria” (PLoS ONE, 2015).

Target: T1, RpoB (β subunit of RNA polymerase) (Mycolicibacterium smegmatis, UniProt P60281)
T1 construct: with RNA polymerase (multimeric enzyme)
T1 sequence (P60281 1-1169): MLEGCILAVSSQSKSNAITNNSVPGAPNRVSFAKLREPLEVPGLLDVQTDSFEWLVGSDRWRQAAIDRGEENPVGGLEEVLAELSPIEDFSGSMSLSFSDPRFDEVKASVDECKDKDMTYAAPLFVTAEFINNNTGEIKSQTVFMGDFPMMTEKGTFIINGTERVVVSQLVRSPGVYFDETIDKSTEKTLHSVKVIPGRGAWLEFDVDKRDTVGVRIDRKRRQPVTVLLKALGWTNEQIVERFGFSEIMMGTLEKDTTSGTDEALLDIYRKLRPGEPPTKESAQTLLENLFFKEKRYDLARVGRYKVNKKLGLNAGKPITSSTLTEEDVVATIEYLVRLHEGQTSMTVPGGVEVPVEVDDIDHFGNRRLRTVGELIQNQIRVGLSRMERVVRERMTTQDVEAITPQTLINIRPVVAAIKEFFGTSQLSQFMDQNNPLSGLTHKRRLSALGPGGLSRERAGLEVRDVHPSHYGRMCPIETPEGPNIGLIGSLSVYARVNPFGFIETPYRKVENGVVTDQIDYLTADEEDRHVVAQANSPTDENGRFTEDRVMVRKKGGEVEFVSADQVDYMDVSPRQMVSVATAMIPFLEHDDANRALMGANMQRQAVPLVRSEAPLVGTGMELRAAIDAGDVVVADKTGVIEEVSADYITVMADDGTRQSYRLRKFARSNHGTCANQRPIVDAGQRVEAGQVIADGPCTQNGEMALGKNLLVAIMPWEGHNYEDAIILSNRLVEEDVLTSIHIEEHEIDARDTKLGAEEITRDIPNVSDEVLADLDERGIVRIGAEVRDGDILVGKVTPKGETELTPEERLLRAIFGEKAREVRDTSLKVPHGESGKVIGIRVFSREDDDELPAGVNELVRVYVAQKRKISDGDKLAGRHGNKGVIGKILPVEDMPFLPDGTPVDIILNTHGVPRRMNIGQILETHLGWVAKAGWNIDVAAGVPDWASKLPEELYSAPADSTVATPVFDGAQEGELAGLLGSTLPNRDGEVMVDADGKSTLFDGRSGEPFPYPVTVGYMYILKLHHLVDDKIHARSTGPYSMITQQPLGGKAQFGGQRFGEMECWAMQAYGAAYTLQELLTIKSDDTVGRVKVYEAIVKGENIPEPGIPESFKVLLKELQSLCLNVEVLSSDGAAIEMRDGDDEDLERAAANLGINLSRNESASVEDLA
Assay: MIC shift in rpoB knockdown strain ([…]; no shift in inhA knockdown); also reference inhibitor in the screens, IC50 not given
Format: cell-based

Compound: CO[C@H]1/C=C/O[C@@]2(C)Oc3c(C)c(O)c4c(O)c(c(/C=N/N5CCN(C)CC5)c(O)c4c3C2=O)NC(=O)/C(C)=C\C=C\[C@H](C)[C@H](O)[C@@H](C)[C@@H](O)[C@@H](C)[C@H](OC(C)=O)[C@@H]1C [rifampicin]
- MIC shift in rpoB knockdown strain (8 to 0.5 μg/ml; no shift in inhA knockdown);: modulation in MIC of rifampicin and isoniazid are due to the reduction in the respective target protein levels
